From the supplement of paper PMC6045584
± gives the standard deviation of the averaged measurements.

Legend:
[1] = compound: T1, CC[C@@]1(O)C(=O)OCc2c1cc1n(c2=O)Cc2cc3ccccc3nc2-1 [CAMPTOTHECIN]; assay: surviving fraction relative to DMSO-only wells; higher = less growth inhibition; settings: exposure time: 5 days
Procedure, shortened: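 Inhibitors were tested at 0.5, 1, 5, 10, 50, 100, 500 and 1000 nM, applied continuously for five days beginning 24 hours after log-phase tumour cells were seeded at 250–500 per well in 384-well plates. CellTiter-Glo luminescence served as the viability measure, expressed as surviving fraction against the median of DMSO-only wells. Each line, screened three times, was kept only with replicate Pearson r >0.7 and median Z' >0.3.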

[2] = compound: COc1cc2ncnc(Nc3ccc(F)c(Cl)c3)c2cc1OCCCN1CCOCC1 [GEFITINIB]; assay: area under dose-response curve of surviving fraction (unscaled, Aref=0) (surviving fraction x log10(nM)); higher = more resistant; settings: exposure time: 5 days; dose range 0.5-1000 nM
Procedure, shortened: (§1)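 Surviving fractions were fitted by 3-parameter logistic regression in the drc R package to give dose-response survival curves. They came from tumour cell lines treated for five days with eight inhibitor concentrations from 0.5 to 1000 nM and read by CellTiter-Glo luminescence against DMSO-only wells. The area under the curve is the unscaled activity area. It was calculated over log10 dose with Aref = 0.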

[3] = compound: Cc1ccc(-c2cc(C(F)(F)F)nn2-c2ccc(S(N)(=O)=O)cc2)cc1 [CELECOXIB]; assay: as above; settings: exposure time: 5 days; dose range 0.5-1000 nM
Procedure, shortened: as §1

[4] = compound: T1, CAMPTOTHECIN; assay: as above; settings: exposure time: 5 days; dose range 0.5-1000 nM
Procedure, shortened: as §1

[5] = compound: C[C@]1(O)C[C@@H](c2nc(-c3ccc4ccc(-c5ccccc5)nc4c3)c3c(N)nccn32)C1 [OSI-906]; assay: as above; settings: exposure time: 5 days; dose range 0.5-1000 nM
Procedure, shortened: as §1

[6] = compound: COCC[n+]1c2c(n(Cc3cnccn3)c1C)C(=O)c1ccccc1C2=O [YM155]; assay: as above; settings: exposure time: 5 days; dose range 0.5-1000 nM
Procedure, shortened: as §1

[7] = compound: CC(=O)NCC(=O)N1[C@@H]2CC[C@H]1c1ccc(Nc3ncc(C(F)(F)F)c(NC4CCC4)n3)cc12; assay: as above; settings: exposure time: 5 days; dose range 0.5-1000 nM
Procedure, shortened: as §1

[8] = compound: CC(=O)O[C@H]1C(=O)[C@@]2(C)[C@H]([C@H](OC(=O)c3ccccc3)[C@]3(O)C[C@H](OC(=O)[C@H](O)[C@@H](NC(=O)c4ccccc4)c4ccccc4)C(C)=C1C3(C)C)[C@]1(OC(C)=O)CO[C@@H]1C[C@@H]2O [PACLITAXEL]; assay: as above; settings: exposure time: 5 days; dose range 0.5-1000 nM
Procedure, shortened: as §1

[9] = compound: CC(=O)c1c(C)c2cnc(Nc3ccc(N4CCNCC4)cn3)nc2n(C2CCCC2)c1=O; assay: as above; settings: exposure time: 5 days; dose range 0.5-1000 nM
Procedure, shortened: as §1

[10] = compound: O=C(O)C1(C(=O)O)CCC1.[NH2-].[NH2-].[Pt+2] [CARBOPLATIN]; assay: as above; settings: exposure time: 5 days; dose range 0.5-1000 nM
Procedure, shortened: as §1

Test System	surviving fraction ([1]; 0.5 nM)	surviving fraction ([1]; 1 nM)	surviving fraction ([1]; 5 nM)	surviving fraction ([1]; 10 nM)	surviving fraction ([1]; 50 nM)	surviving fraction ([1]; 100 nM)	surviving fraction ([1]; 500 nM)	surviving fraction ([1]; 1000 nM)	area under dose-response curve [2]	area under dose-response curve [3]	area under dose-response curve [4]	area under dose-response curve [5]	area under dose-response curve [6]	area under dose-response curve [7]	area under dose-response curve [8]	area under dose-response curve [9]	area under dose-response curve [10]
SUM159 BREAST	0.915 ± 0.014	0.937 ± 0.015	0.793 ± 0.018	0.26 ± 0.0036	0.1303 ± 0.00058	0.0763 ± 0.0031	0.03 ± 0.001	0.0283 ± 0.00058	3.52	3.58	1.29	3.15	1.25	2.79	1.29	3.03	–
HS578T BREAST	0.811 ± 0.14	0.778 ± 0.18	0.729 ± 0.11	0.648 ± 0.091	0.464 ± 0.05	0.457 ± 0.054	0.228 ± 0.0098	0.212 ± 0.039	3.1	3.16	1.81	3.11	2.61	2.72	0.471	3.49	–
HMLE3 BREAST	0.304 ± 0.027	0.85433 ± 0.00058	0.485 ± 0.027	0.3 ± 0.0056	0.127 ± 0.026	0.0547 ± 0.0029	0.0203 ± 0.0015	0.0213 ± 0.00058	–	3.53	0.888	2.79	1.02	2.59	0.754	3.23	–
LM7 BONE	0.73 ± 0.032	0.691 ± 0.08	0.422 ± 0.0056	0.232 ± 0.015	0.145 ± 0.018	0.0813 ± 0.0095	0.024 ± 0.0035	0.0243 ± 0.00058	3.49	3.39	0.895	2.32	0.956	2.54	0.746	3.43	–
SG28 HEADNECK	0.21 ± 0.068	0.771 ± 0.12	0.579 ± 0.056	0.696 ± 0.099	0.337 ± 0.015	0.55 ± 0.044	0.211 ± 0.04	0.102 ± 0.0035	–	–	–	–	–	2.96	2.04	3.43	–
MG63 BONE	0.873 ± 0.015	0.871 ± 0.028	0.434 ± 0.019	0.295 ± 0.0068	0.0393 ± 0.0065	0.024 ± 0.001	0.02 ± 0.001	0.023 ± 0.001	3.47	3.57	0.972	3.11	1.43	2.52	0.809	3.25	–
HT1080 SOFT TISSUE	0.956 ± 0.017	0.925 ± 0.027	0.739 ± 0.034	0.361 ± 0.0046	0.377 ± 0.014	0.26 ± 0.022	0.0953 ± 0.016	0.0837 ± 0.0075	–	–	1.51	3.17	1.04	2.39	0.5	3.28	3.51
HMT3552 BREAST	0.955 ± 0.056	0.944 ± 0.087	0.782 ± 0.031	0.422 ± 0.0095	0.224 ± 0.0076	0.215 ± 0.0061	0.0953 ± 0.005	0.0647 ± 0.0081	3.14	3.77	1.48	3.17	1.94	–	–	–	–
S68 BREAST	0.576 ± 0.087	0.544 ± 0.073	0.442 ± 0.11	0.342 ± 0.041	0.284 ± 0.045	0.218 ± 0.021	0.0747 ± 0.012	0.0687 ± 0.0057	2.99	3.75	1.05	2.83	1.4	2.38	0.758	–	3.8
